In the assay the target is T1, human TLR9 (Homo sapiens, UniProt Q9NR96).
T1 sequence (Q9NR96 26-1032): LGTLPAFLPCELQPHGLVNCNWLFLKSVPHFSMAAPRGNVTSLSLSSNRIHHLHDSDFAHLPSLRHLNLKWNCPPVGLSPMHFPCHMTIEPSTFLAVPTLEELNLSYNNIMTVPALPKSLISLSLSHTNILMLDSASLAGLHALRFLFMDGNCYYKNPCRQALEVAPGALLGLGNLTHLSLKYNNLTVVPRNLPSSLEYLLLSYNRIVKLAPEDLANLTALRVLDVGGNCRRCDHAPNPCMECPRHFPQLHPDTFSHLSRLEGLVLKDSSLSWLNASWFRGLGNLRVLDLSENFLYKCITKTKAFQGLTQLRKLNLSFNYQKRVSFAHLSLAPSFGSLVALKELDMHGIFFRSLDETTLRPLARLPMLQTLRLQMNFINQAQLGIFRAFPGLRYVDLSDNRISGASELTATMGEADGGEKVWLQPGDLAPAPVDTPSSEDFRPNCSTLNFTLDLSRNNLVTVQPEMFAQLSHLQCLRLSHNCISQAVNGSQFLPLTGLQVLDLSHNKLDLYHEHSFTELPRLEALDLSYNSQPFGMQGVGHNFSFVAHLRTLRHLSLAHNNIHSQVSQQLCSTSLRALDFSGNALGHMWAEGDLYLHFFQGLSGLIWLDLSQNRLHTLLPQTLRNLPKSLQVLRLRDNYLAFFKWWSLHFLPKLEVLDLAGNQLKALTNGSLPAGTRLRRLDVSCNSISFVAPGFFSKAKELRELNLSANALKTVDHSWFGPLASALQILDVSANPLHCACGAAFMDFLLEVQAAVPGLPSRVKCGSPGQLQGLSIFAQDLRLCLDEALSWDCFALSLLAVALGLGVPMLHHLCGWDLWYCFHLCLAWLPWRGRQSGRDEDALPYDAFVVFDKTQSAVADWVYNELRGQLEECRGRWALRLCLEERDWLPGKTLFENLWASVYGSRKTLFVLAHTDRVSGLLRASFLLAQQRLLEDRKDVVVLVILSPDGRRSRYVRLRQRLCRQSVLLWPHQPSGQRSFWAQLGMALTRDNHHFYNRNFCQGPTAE
Kind of assay: HEK293-Blue-hTLR-9 cells assay (SEAP reporter, ODN2006 stimulation). Format: cell-based. The settings on record: HEK293-Blue-hTLR9 cells, ODN2006 ligand, 20 hrs incubation, antagonist. Here is the method: The following tests were carried out in order to determine the activity of the compounds of formula (I) in HEK293-Blue-hTLR-7/8/9 cells assay.
HEK293-Blue-hTLR-9 Cells Assay:
A stable HEK293-Blue-hTLR-9 cell line was purchased from InvivoGen (Cat. #: hkb-htlr9, San Diego, Calif., USA). These cells were originally designed for studying the stimulation of human TLR9 by monitoring the activation of NF-κB. A SEAP (secreted embryonic alkaline phosphatase) reporter gene was placed under the control of the IFN-β minimal promoter fused to five NF-κB and AP-1-binding sites. The SEAP was induced by activating NF-κB and AP-1 via stimulating HEK-Blue hTLR9 cells with TLR9 ligands. Therefore the reporter expression was declined by TLR9 antagonist under the stimulation of a ligand, such as ODN2006 (Cat. #: tlrl-2006-1, Invivogen, San Diego, Calif., USA), for incubation of 20 hrs. The cell culture supernatant SEAP reporter activity was determined using QUANTI-Blue™ kit (Cat. #: rep-qb1, Invivogen, San Diego, Calif., USA) at a wavelength of 640 nm, a detection medium that turns purple or blue in the presence of alkaline phosphatase.
HEK293-Blue-hTLR9 cells were incubated at a density of […] cells/mL in a volume of 170 μL in a 96-well plate in Dulbecco's Modified Eagle's medium (DMEM) containing 4.5 g/L glucose, 50 U/mL penicillin, […], 2 mM L-glutamine, 10% (v/v) heat-inactivated fetal bovine serum with addition of 20 μL test compound in a serial dilution in the presence of final DMSO at 1% and 10 μL of 20 uM ODN2006 in above DMEM, perform incubation under 37° C. in a CO2 incubator for 20 hrs. Then 20 μL of the supernatant from each well was incubated with 180 μL Quanti-blue substrate solution at 37° C. for 2 hrs and the absorbance was read at 620˜655 nm using a spectrophotometer. The signalling pathway that TLR9 activation leads to downstream NF-κB activation has been widely accepted, and therefore similar reporter assay was modified for evaluating TLR9 antagonist.

What is called IC50 is the concentration needed to halve the response being measured. High values mean weaker potency in that assay, low ones greater potency in that assay.

The compound `C[C@@H]1CN(c2ccc(C#N)c3ncsc23)C[C@H](C(=O)NCC2CN(C)CCO2)O1` (stereo partly drawn) [Example 12, (2R,6R)-4-(4-cyano-1,3-benzothiazol-7-yl)-6-methyl-N-[(4-methylmorpholin-2-yl)methyl]morpholine-2-carboxamide] came in with an IC50 of 36.8 µM.

Consider `C[C@@H]1CN(c2ccc(C#N)c3ncsc23)C[C@H](CN2CCC(N3CCCCC3)CC2)O1` [Example 7, 7-[(2R,6S)-2-methyl-6-[[4-(1-piperidyl)-1-piperidyl]methyl]morpholin-4-yl]-1,3-benzothiazole-4-carbonitrile], for which it took 0.118 µM to reach half-maximal inhibition (IC50).

As to `C[C@@H]1CN(c2ccc(C#N)c3ncsc23)C[C@H](CN2CC3(CCCNC3)C2)O1` [Example 4, 7-[(2S,6R)-2-(2,8-diazaspiro[3.5]nonan-2-ylmethyl)-6-methyl-morpholin-4-yl]-1,3-benzothiazole-4-carbonitrile], the IC50 is 0.101 µM.

In turn, `C[C@@H]1CN(c2ccc(C#N)c3ncsc23)C[C@H](CN2CCC(N)CC2)O1` [Example 2, 7-[(2S,6R)-2-[(4-amino-1-piperidyl)methyl]-6-methyl-morpholin-4-yl]-1,3-benzothiazole-4-carbonitrile] came in with an IC50 of 0.3 µM.

As to `C[C@@H]1CN(c2ccc(C#N)c3ncsc23)C[C@H](CN2CCC3(CCNC3)CC2)O1` [Example 6, 7-[(2S,6R)-2-(2,8-diazaspiro[4.5]decan-8-ylmethyl)-6-methyl-morpholin-4-yl]-1,3-benzothiazole-4-carbonitrile], it took 0.098 µM to reach half-maximal inhibition (IC50).

In the case of `C[C@@H]1CN(c2ccc(C#N)c3ncsc23)C[C@H](C(=O)NC2CCN(C)CC2)O1` [Example 11, (2R,6R)-4-(4-cyano-1,3-benzothiazol-7-yl)-6-methyl-N-(1-methyl-4-piperidyl)morpholine-2-carboxamide], half-maximal inhibition (IC50) required 17.5 µM.

The compound `C[C@@H]1CN(c2ccc(C#N)c3ncsc23)C[C@H](CN2[C@@H]3CC[C@H]2C[C@@H](N)C3)O1` [Example 8, Endo-7-[(2S,6R)-2-[[(1R,5S)-3-amino-8-azabicyclo[3.2.1]octan-8-yl]methyl]-6-methyl-morpholin-4-yl]-1,3-benzothiazole-4-carbonitrile] registered a half-inhibitory concentration (IC50) of 0.109 µM.

For `C[C@@H]1CN(c2ccc(C#N)c3ncsc23)C[C@H](CN2CCC3(CCCNC3)CC2)O1` [Example 3, 7-[(2S,6R)-2-(2,9-diazaspiro[5.5]undecan-9-ylmethyl)-6-methyl-morpholin-4-yl]-1,3-benzothiazole-4-carbonitrile], the IC50 amounted to 0.077 µM.

With `C[C@@H]1CN(c2ccc(C#N)c3ncsc23)C[C@H](CN2CCC3(CCNCC3)CC2)O1` [Example 5, 7-[(2S,6R)-2-(3,9-diazaspiro[5.5]undecan-3-ylmethyl)-6-methyl-morpholin-4-yl]-1,3-benzothiazole-4-carbonitrile], the IC50 turned out to be 0.145 µM.

With `C[C@@H]1CN(c2ccc(C#N)c3ncsc23)C[C@H](CN2CCC3(CCCN(C)C3)CC2)O1` [Example 10, 7-[(2R,6S)-2-methyl-6-[(2-methyl-2,9-diazaspiro[5.5]undecan-9-yl)methyl]morpholin-4-yl]-1,3-benzothiazole-4-carbonitrile], it took 0.077 µM to reach half-maximal inhibition (IC50).

The compound `C[C@@H]1CN(c2ccc(C#N)c3ncsc23)C[C@H](CN2CCC3(CCCNC3)C2)O1` (stereo partly drawn) [Example 1, 7-[(2S,6R)-2-(2,9-diazaspiro[4.5]decan-2-ylmethyl)-6-methyl-morpholin-4-yl]-1,3-benzothiazole-4-carbonitrile] displayed an IC50 of 0.087 µM.

Regarding `C[C@@H]1CN(c2ccc(C#N)c3ncsc23)C[C@H](CN2[C@@H]3CC[C@H]2C[C@H](N)C3)O1` [Example 9, Exo-7-[(2S,6R)-2-[[(1S,5R)-3-amino-8-azabicyclo[3.2.1]octan-8-yl]methyl]-6-methyl-morpholin-4-yl]-1,3-benzothiazole-4-carbonitrile], the IC50 came to 0.065 µM.

Values taken from patent US11639352B2, “Benzothiazole compounds for the treatment of autoimmune diseases” (Hoffmann-La Roche Inc., priority 2018, dated 2023).
